Reference: US20250002489A1, “BIFUNCTIONAL COMPOUNDS FOR DEGRADING ITK VIA UBIQUITIN PROTEOSOME PATHWAY” (NURIX THERAPEUTICS, INC., priority 2021, published 2025)

Legend:
[1] = Mouse PK analysis, plasma concentration by LC/MS/MS after oral administration; format: in vivo; conditions: mice; for concentration at 2 h: timepoint 2 h; for concentration at 6 h: timepoint 6 h
Protocol: Mouse PK Analysis Compounds 17 and 18 were administered to mice orally. After six hours or twenty-four hours, splenocyte cells were harvested. ITK was evaluated by Western blotting. Plasma concentrations were determined by LC/MS/MS. Plasma samples were protein precipitated by addition of 100 μl of acetonitrile containing 50 ng/ml of internal standard. The resulting mixture was vortexed and centrifuged at 4000 rpm for five minutes. An aliquot of the resultant supernatant (75 μl) was added to 75 μl of 0.1% formic acid in water to constitute the final sample for injection. Samples were injected on a Shimadzu Exion LC Binary Gradient AD Pump HLPC system connected to a Sciex QTRAP 6500+ mass spectrometer. 5 μL of sample was injected onto a Waters Acquity UPLC BEH C18 column 130A (2.1×30 mm, […]) at 40° C. utilizing a flow rate of 700 μL/minute.
Mobile Phase A was 0.1% formic acid in water and mobile phase B was 0.1% formic acid in acetonitrile. A linear gradient of 15-95% B over 1.0 minute was used. The mass spectrometer was operated in positive ion electrospray mode with multiple reaction monitoring for maximum sensitivity. Sciex Analyst software (version 1.6.3) was used for LC/MS/MS instrument control and acquisition. Compound concentration was determined against a standard curve of internal standard versus compound peak area ratio. Noncompartmental PK parameters were determined using Phoenix 32 software (version 8.2.0.4383) from Certara. Plasma concentrations from the LC/MS/MS analyses, dose, route of administration, and desired units were utilized for PK parameter calculations.

[2] = target: T1, ITK (Jurkat or Molt4 cells) (Homo sapiens, UniProt Q08881); assay: ITK Degradation MSD (Meso Scale Discovery) Assay; format: cell-based; conditions: 4 or 6 hrs incubation; for DC50: best fit IC50 used as DC50
T1 construct: either human Jurkat (Clone E6-1 ATCC TIB-152) or Motl4 (ATCC CRL-1552), were plated; endogenous in cells; host or cells: Jurkat Clone E6-1 (ATCC TIB-152) or Molt4 (ATCC CRL-1552)
T1 sequence (Q08881 1-620): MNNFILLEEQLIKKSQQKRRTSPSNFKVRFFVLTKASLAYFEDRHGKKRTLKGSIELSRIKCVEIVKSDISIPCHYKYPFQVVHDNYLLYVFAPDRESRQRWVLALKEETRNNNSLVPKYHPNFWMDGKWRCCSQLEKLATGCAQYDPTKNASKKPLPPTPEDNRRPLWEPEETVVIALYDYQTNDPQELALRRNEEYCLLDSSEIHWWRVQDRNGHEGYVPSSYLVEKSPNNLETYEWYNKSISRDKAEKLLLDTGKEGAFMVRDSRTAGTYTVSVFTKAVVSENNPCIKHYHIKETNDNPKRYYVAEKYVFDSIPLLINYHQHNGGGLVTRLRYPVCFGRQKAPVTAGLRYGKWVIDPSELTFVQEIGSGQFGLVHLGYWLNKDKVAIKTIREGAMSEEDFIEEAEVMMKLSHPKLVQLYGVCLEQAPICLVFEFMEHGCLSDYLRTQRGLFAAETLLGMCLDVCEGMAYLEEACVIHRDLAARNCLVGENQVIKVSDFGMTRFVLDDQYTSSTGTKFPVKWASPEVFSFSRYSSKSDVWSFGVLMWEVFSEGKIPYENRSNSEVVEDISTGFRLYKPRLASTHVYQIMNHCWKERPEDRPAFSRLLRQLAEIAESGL
In short: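 Jurkat or Molt4 cells at 1×10^6 cells/mL in RPMI/10% FBS treated 4 or 6 hr at 32° C with 7-point, 5-fold compound dilutions (0.5% DMSO). Lysate ITK quantified by MSD sandwich ECL immunoassay; % ITK remaining fitted by four-parameter curve, IC50 taken as DC50, plus Dmax.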

[3] = target: T2, ITK (C-terminal HiBiT-tagged Molt4 cells) (Homo sapiens, UniProt Q08881); assay: ITK Degradation HiBiT Assay; format: cell-based; conditions: for Dmax: MOLT-4, 4 hrs incubation; for DC50: 4 hrs incubation, best fit IC50 used as DC50
T2 construct: expressed in transfected cells; host or cells: Molt4 (ATCC CRL-1552), monoclonal clone 1C10, engineered to express HiBiT-tagged ITK
T2 sequence (Q08881 1-620): T1 sequence (Q08881 1-620)
Protocol: Compounds provided herein were assayed in vitro with ITK HiBit cell lines. Compound dilution series (11-point, 5-fold dilutions in DMSO, columns 2-12 with replicate in rows A/B, C/D, E/F, G, and H at 2000× the final required concentrations were prepared in 96-well plate (Falcon, cat. no. 353077). Column 1, rows A-H were control DMSO. The 2000× solutions ranged from 2 mM to 1.024 nM (final assay concentration range 1 μM to 0.512 pM). The 2000×solutions were added to cells in 10 μL volume, for a final DMSO concentration of 0.5% and final assay compound concentration of 1×. For the cells, C-terminal HiBiT-tagged Molt4 cells (ATCC CRL-1552, monoclonal cell line clone 1C10) were plated at 1×10^6 cells/mL, 100 μL/well ([…]) in complete RPMI (10% FBS, 1% L-glutamine). The cells were incubated with compounds 1-25, 31, and 31 for 4 hrs at 32° C./6% CO2.
Following incubation, 100 μL of complete Nano-Glo HiBiT Lytic Detection Reagent (Nano-Glo HiBiT Lytic Buffer with 1:50 Nano-Glo HiBiT Lytic Substrate and 1:100 LgBiT Protein; Promega cat. no. N3O40) was added. Cells were further incubated for 10 min at room temperature. Luminescence units (LU) were read on an EnVision plate reader (Perkin Elmer, 0.1 sec per well). Percent ITK remaining per sample was calculated as follows: […]
Using Graphpad Prism, % ITK remaining values were plotted as a function of compound concentration. To determine DC50 and Dmax values, resulting curves were fit to the Prism curve-fitting equation “log(inhibitor) vs response−Variable slope (four parameters)” (reported best fit value IC50 used as DC50). ITK was measured with antibody-based MSD (Meso-Scale Discovery) assays shown below.

SMILES | concentration at 2 h [1] [nM] | concentration at 6 h [1] [nM] | Dmax [2] [%] | DC50 [2] [nM] | Dmax [3] [%] | DC50 [3] [nM]
Cc1ncsc1-c1ccc(CNC(=O)[C@@H]2C[C@@H](O)CN2C(=O)[C@@H](NC(=O)C2(F)CC2)C(C)(C)C)c(OCCOCCC(=O)N2CC([C@@H](c3ccccc3)n3cc(NC(=O)c4n[nH]c5c4C[C@@H]4C(F)(F)[C@]4(C)C5)cn3)C2)c1 [Compound 17, (4aS,5aR)-5,5-difluoro-N-(1-((S)-(1-(3-(2-(2-(((2S,4R)-1-((S)-2-(1-fluorocyclopropane-1-carboxamido)-3,3-dimethylbutanoyl)-4-hydroxypyrrolidine-2-carboxamido)methyl)-5-(4-methylthiazol-5-yl)phenoxy)ethoxy)propanoyl)azetidin-3-yl)(phenyl)methyl)-1H-pyrazol-4-yl)-5a-methyl-1,4,4a,5,5a,6-hexahydrocyclopropa[f]indazole-3-carboxamide] | 1.8 | 4.5 | 95.7 | 4.51 | – | –
Cc1ncsc1-c1ccc([C@H](C)NC(=O)[C@@H]2C[C@@H](O)CN2C(=O)[C@@H](NC(=O)CCCCCCCCCC(=O)N2CC([C@@H](c3ccccc3)n3cc(NC(=O)c4n[nH]c5c4C[C@@H]4C(F)(F)[C@]4(C)C5)cn3)C2)C(C)(C)C)cc1 [Compound 27, (4aS,5aR)-5,5-difluoro-N-(1-((S)-(1-(11-(((S)-1-((2S,4R)-4-hydroxy-2-(((S)-1-(4-(4-methylthiazol-5-yl)phenyl)ethyl)carbamoyl)pyrrolidin-1-yl)-3,3-dimethyl-1-oxobutan-2-yl)amino)-11-oxoundecanoyl)azetidin-3-yl)(phenyl)methyl)-1H-pyrazol-4-yl)-5a-methyl-1,4,4a,5,5a,6-hexahydrocyclopropa[f]indazole-3-carboxamide] | – | – | – | – | 35 | –
Cc1ncsc1-c1ccc(CNC(=O)[C@@H]2C[C@@H](O)CN2C(=O)[C@@H](NC(=O)C2(F)CC2)C(C)(C)C)c(OCCCCCC(=O)N2CC([C@@H](c3ccccc3)n3cc(NC(=O)c4n[nH]c5c4C[C@@H]4C(F)(F)[C@]4(C)C5)cn3)C2)c1 [Compound 18, (4aS,5aR)-5,5-difluoro-N-(1-((S)-(1-(6-(2-(((2S,4R)-1-((S)-2-(1-fluorocyclopropane-1-carboxamido)-3,3-dimethylbutanoyl)-4-hydroxypyrrolidine-2-carboxamido)methyl)-5-(4-methylthiazol-5-yl)phenoxy)hexanoyl)azetidin-3-yl)(phenyl)methyl)-1H-pyrazol-4-yl)-5a-methyl-1,4,4a,5,5a,6-hexahydrocyclopropa[f]indazole-3-carboxamide] | 6.1 | 16.2 | 95.1 | 1.47 | – | –
Cc1ncsc1-c1ccc([C@H](C)NC(=O)[C@@H]2C[C@@H](O)CN2C(=O)[C@@H](NC(=O)CCCCCCCC(=O)N2CC([C@@H](c3ccccc3)n3cc(NC(=O)c4n[nH]c5c4C[C@@H]4C(F)(F)[C@]4(C)C5)cn3)C2)C(C)(C)C)cc1 [Compound 28, (4aS,5aR)-5,5-difluoro-N-(1-((S)-(1-(9-(((S)-1-((2S,4R)-4-hydroxy-2-(((S)-1-(4-(4-methylthiazol-5-yl)phenyl)ethyl)carbamoyl)pyrrolidin-1-yl)-3,3-dimethyl-1-oxobutan-2-yl)amino)-9-oxononanoyl)azetidin-3-yl)(phenyl)methyl)-1H-pyrazol-4-yl)-5a-methyl-1,4,4a,5,5a,6-hexahydrocyclopropa[f]indazole-3-carboxamide] | – | – | – | – | 91 | 1.41
Cc1ncsc1-c1ccc([C@H](C)NC(=O)[C@@H]2C[C@@H](O)CN2C(=O)[C@@H](NC(=O)CCN2CCC(CCC(=O)N3CC([C@@H](c4ccccc4)n4cc(NC(=O)c5n[nH]c6c5C[C@@H]5C(F)(F)[C@]5(C)C6)cn4)C3)CC2)C(C)(C)C)cc1 [Compound 26, (4aS,5aR)-5,5-difluoro-N-(1-((S)-(1-(3-(1-(3-(((S)-1-((2S,4R)-4-hydroxy-2-(((S)-1-(4-(4-methylthiazol-5-yl)phenyl)ethyl)carbamoyl)pyrrolidin-1-yl)-3,3-dimethyl-1-oxobutan-2-yl)amino)-3-oxopropyl)piperidin-4-yl)propanoyl)azetidin-3-yl)(phenyl)methyl)-1H-pyrazol-4-yl)-5a-methyl-1,4,4a,5,5a,6-hexahydrocyclopropa[f]indazole-3-carboxamide] | – | – | – | – | – | 6.61
Cc1ncsc1-c1ccc(CNC(=O)[C@@H]2C[C@@H](O)CN2C(=O)[C@@H](NC(=O)C2(F)CC2)C(C)(C)C)c(OC2CN(c3ccnc(N4CC([C@@H](c5ccccc5)n5cc(NC(=O)c6n[nH]c7c6C[C@@H]6C(F)(F)[C@]6(C)C7)cn5)C4)c3)C2)c1 [Compound 35, (4aS,5aR)-5,5-difluoro-N-(1-((S)-(1-(4-(3-(2-(((2S,4R)-1-((S)-2-(1-fluorocyclopropane-1-carboxamido)-3,3-dimethylbutanoyl)-4-hydroxypyrrolidine-2-carboxamido)methyl)-5-(4-methylthiazol-5-yl)phenoxy)azetidin-1-yl)pyridin-2-yl)azetidin-3-yl)(phenyl)methyl)-1H-pyrazol-4-yl)-5a-methyl-1,4,4a,5,5a,6-hexahydrocyclopropa[f]indazole-3-carboxamide] | – | – | – | – | 35 | –
Cc1ncsc1-c1ccc([C@H](C)NC(=O)[C@@H]2C[C@@H](O)CN2C(=O)[C@@H](NC(=O)CCCCCC(=O)N2CC([C@@H](c3ccccc3)n3cc(NC(=O)c4n[nH]c5c4C[C@@H]4C(F)(F)[C@]4(C)C5)cn3)C2)C(C)(C)C)cc1 [Compound 29, (4aS,5aR)-5,5-difluoro-N-(1-((S)-(1-(7-(((S)-1-((2S,4R)-4-hydroxy-2-(((S)-1-(4-(4-methylthiazol-5-yl)phenyl)ethyl)carbamoyl)pyrrolidin-1-yl)-3,3-dimethyl-1-oxobutan-2-yl)amino)-7-oxoheptanoyl)azetidin-3-yl)(phenyl)methyl)-1H-pyrazol-4-yl)-5a-methyl-1,4,4a,5,5a,6-hexahydrocyclopropa[f]indazole-3-carboxamide] | – | – | – | – | 84 | 19.7
